Read-outs that look alike come from different tables or passages of the source.
How the values were obtained:
[1] = system: infiltrating immune cells (CD45high) in brain of EAE mice; test: EAE model, immune cell infiltration into the brain by flow cytometry; format: in vivo, female C57BL/6 mice
[2] = system: Substance P induced scratch; test: Substance P induced scratch mouse model; details: SC or IV administration, top two rows of the table only, read-out: average in vivo efficacy ED50 for itch model
itch = details: human; cited from earlier work
[3] = system: cuprizone demyelination disease model of MS; test: Cuprizone model, von Frey mechanical withdrawal threshold; format: in vivo, female C57BL/6 mice; details: 0.1 mg/kg/i.p. daily
[4] = system: Histamine induced scratch; details: PO, Togashi et al. (2002); cited from earlier work
[5] = cited from earlier work
[6] = system: myelin in spinal cord of EAE mice; test: EAE model, TEM of spinal cord sections; format: in vivo, female C57BL/6 mice; details: 0.03 mg/kg daily i.p. from day 17; day 45
[7] = system: cuprizone demyelination disease model of MS; test: Cuprizone model of demyelination, weight change; format: in vivo, female C57BL/6 mice
[8] = system: Substance P induced scratch; details: cited from earlier work
[9] = system: myelin in corpus callosum of cuprizone-treated mice; test: Cuprizone model, TEM of corpus callosum (g-ratio, myelinated axons, myelin area); format: in vivo, female C57BL/6 mice
[10] = system: activated GFAP+ astrocytes in the spinal cord of EAE mice; test: EAE model, GFAP immunohistochemistry of spinal cord (activated astrocytes); format: in vivo, female C57BL/6 mice; details: 0.01 mg/kg daily i.p. from day 17; day 45
[11] = system: myelin in spinal cord of EAE mice; test: EAE model, luxol fast blue staining of spinal cord (demyelination); format: in vivo, female C57BL/6 mice
[12] = system: lymphocyte populations in the spleen of EAE mice; test: EAE model, splenocytes by flow cytometry; format: in vivo, female C57BL/6 mice; details: 0.01 mg/kg daily i.p. from onset
[13] = system: cuprizone model of demyelination; test: Cuprizone model, rotarod assay (coordination); format: in vivo, female C57BL/6 mice; details: 0.1 mg/kg daily i.p.; week 9 relative to week 5
[14] = system: leucocyte infiltration into the spinal cord of EAE mice; test: EAE model, H&E staining of spinal cord (leucocyte infiltration); format: in vivo, female C57BL/6 mice; details: 0.01 mg/kg daily i.p. from onset; chronic phase
Morphine induced scratch = details: SC, EMA/CHMP/138212/2014; cited from earlier work
[15] = 0.1 mg/kg/i.p. daily from day 28, day 70

## CN(C(=O)/C=C/c1ccoc1)[C@@H]1CC[C@@]2(O)[C@H]3Cc4ccc(O)c5c4[C@@]2(CCN3CC2CC2)[C@H]1O5 [nalfurafine, (E)-N-[(4R,4aS,7R,7aR,12bS)-3-(cyclopropylmethyl)-4a,9-dihydroxy-1,2,4,5,6,7,7a,13-octahydro-4,12-methanobenzofuro[3,2-e]isoquinoline-7-yl]-3-(furan-3-yl)-N-methylprop-2-enamide]
[1]; 0.03 mg/kg daily i.p. from day 17, day 45
  number of infiltrating immune cells in brain (ratio to microglia): significantly reduced
[1]; 0.03 and 0.01 mg/kg daily i.p. from onset, chronic phase (>24 days)
  number of infiltrating immune cells in brain (ratio to microglia): significantly reduced
[2]
  ED50: ~2.71 µg/kg
itch
  effective dose in humans for itch: 2.5 μg/body/day
[3]; pre vs post treatment
  mechanical withdrawal threshold (von Frey): reduced to baseline levels
[3]; vs vehicle treated mice
  mechanical threshold scores (von Frey): improved mechanical threshold scores
[4]
  Complete Inhibition: 30 to 100 µg/kg
  ED50: 7.3 µg/kg
[5]; intravenous (IV)
  Bioavailability: 100%
[5]; oral (PO) administration
  Bioavailability: ~32%
[5]; subcutaneous (s.c.)
  Bioavailability: 96%
[6]
  myelination of nerve axons in spinal cord (TEM): healthy and well-myelinated
[7]; 0.1 mg/kg daily i.p. from day 28, cuprizone 35 days, vs vehicle or U-50488
  % weight change in recovery phase: enhances recovery of the lost weight faster
[7]; 0.1 mg/kg daily i.p. from week 4, 0.3% cuprizone 5 weeks, vs vehicle (Example 7)
  % weight change (reversal of cuprizone weight loss): reversed significantly more effectively
[8]; IV, EMA/CHMP/138212/2014
  Complete Inhibition: 7.5 to 10 µg/kg
  ED50: 3.77 µg/kg
[8]; PO, 100 μg/kg, EMA/CHMP/138212/2014
  Inhibition reached at the dose given under Complete Inhibition: (66%)
[8]; PO, EMA/CHMP/138212/2014
  Complete Inhibition: 100 µg/kg
  ED50: 9.61 µg/kg
[8]; PO, Togashi et al. (2002)
  Complete Inhibition: 100 µg/kg
  ED50: 19.6 µg/kg
[8]; SC, EMA/CHMP/138212/2014
  Complete Inhibition: 10 µg/kg
  ED50: 1.65 µg/kg
[9]; 0.1 mg/kg daily i.p. from week 4, day 65 (Example 9)
  myelin in corpus callosum (TEM, g-ratio): more myelin was detected
[9]; [15]
  area of myelin staining per TEM image: percentage increase in area of myelination
  mean g-ratio (corpus callosum): 0.75±0.15
  number of myelinated axons vs non-myelinated axons: percentage increase in the number of myelinated axons
[10]
  number of activated GFAP+ astrocytes per section: significantly reduces
[11]; 0.01 mg/kg daily i.p. from onset, chronic phase (Example 25)
  lesion load and myelin density in ventral horn (luxol fast blue): reduces this lesion load and demyelination
[11]; 0.03 or 0.01 mg/kg daily i.p. from onset, chronic phase
  % demyelination of spinal cord (luxol fast blue): significant reduction
[12]; 27 days post treatment initiation
  proportion of major lymphocyte populations in spleen (CD4, CD8, B220; % live leukocytes): do not alter
[12]; 27 days, vs vehicle
  Teff:cm ratio (effector to central memory CD4 T cells): reduced ratio
  overall number of CD4 T cells in spleen: the same
[13]
  rotarod performance (coordination): reversed
[14]
  leucocyte infiltration score (0-3), H&E: reduction of infiltrating leucocytes
Morphine induced scratch
  Complete Inhibition: 5 to 10 µg/kg
  ED50: 2.34 µg/kg

— US11324742B2, “Treatment of demyelinating diseases” (Victoria Link Ltd., priority 2018, dated 2022)
